This is an account of results in ChEMBL document CHEMBL1777706, “Discovery of selective and orally available spiro-3-piperidyl ATP-competitive MK2 inhibitors” (Bioorg Med Chem Lett, 2011).

Active and inactive are the calls of the source. The rule behind the calls is not given here.

Data set [1] has as its target T1, MAP kinase-activated protein kinase 2 (Homo sapiens, UniProt P49137). Put plainly: Inhibition of MK2 pretreated for 30 mins before fluorescein labeled substrate peptide addition measured after 2 hrs by IMAP assay.
Data set [2] relates to THP-1. Put plainly: Antiinflammatory activity in human THP1 cells assessed as inhibition of LPS-induced TNFalpha production pretreated 30 mins before LPS challenge measured after 4 hrs. Format: functional, cell-based.
The target in data set [3] is T1, MAP kinase-activated protein kinase 2. The data set is described as follows: Inhibition of MK2 in LPS-stimulated human THP1 cells assessed as inhibition of Hsp27 phosphorylation pretreated 60 mins before LPS challenge measured after 10 mins. Format: cell-based, THP-1.
Data set [4] has as its system PBMC. Put plainly: Antiinflammatory activity in human PBMC cells assessed as inhibition of LPS-induced TNFalpha production pretreated 30 mins before LPS challenge measured after 4 hrs by ELISA. Format: functional, cell-based.
The nature of data set [5]: Dissociation constant, pKa of the compound at pH 7.4. It is filed as physicochemical.
Data set [6] can be described thus: Half life in human liver microsomes. It is filed as ADME, Microsome.
Data set [7] can be described thus: Half life in rat liver microsomes. It is filed as ADME, Microsome. For orientation: Liver microsomes are a subcellular fraction often used to study metabolism.
The nature of data set [8]: AUC in po dosed rat. It is filed as ADME, organism-based. As to conditions: plasma.
Data set [9] in a line: Oral bioavailability in mouse. It is filed as ADME, organism-based. As to conditions: in vivo.
Data set [10] in a line: Inhibition of p38.
Data set [11] concerns the target MAP kinase-activated protein kinase 3 (Homo sapiens) (UniProt Q16644). The data set is described as follows: Inhibition of MK3 at 1 uM.
The target of data set [12] is T2, MAP kinase-activated protein kinase 5 (Homo sapiens) (UniProt Q8IW41).
T2 sequence (whole entry): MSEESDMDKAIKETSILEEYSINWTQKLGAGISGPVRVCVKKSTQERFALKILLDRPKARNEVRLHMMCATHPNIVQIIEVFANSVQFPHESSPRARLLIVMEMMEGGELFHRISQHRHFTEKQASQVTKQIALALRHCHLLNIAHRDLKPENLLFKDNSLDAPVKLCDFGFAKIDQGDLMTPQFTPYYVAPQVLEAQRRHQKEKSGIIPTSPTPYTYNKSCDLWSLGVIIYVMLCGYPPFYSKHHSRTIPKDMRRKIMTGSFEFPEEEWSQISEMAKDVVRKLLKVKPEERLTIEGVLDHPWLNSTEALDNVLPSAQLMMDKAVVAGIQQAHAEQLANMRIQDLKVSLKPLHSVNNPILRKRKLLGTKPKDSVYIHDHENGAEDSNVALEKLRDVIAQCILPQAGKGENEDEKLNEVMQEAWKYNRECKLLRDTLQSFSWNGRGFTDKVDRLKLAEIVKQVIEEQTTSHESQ
Put plainly: Inhibition of MK5 at 1 uM.

Data set [13] has as its target Serine/threonine-protein kinase pim-1 (Homo sapiens) (UniProt P11309). Put plainly: Inhibition of PIM1 at 1 uM.
The target in data set [14] is Serine/threonine-protein kinase pim-3 (Homo sapiens) (UniProt Q86V86). The data set is described as follows: Inhibition of PIM3 at 1 uM.
For data set [15], the target named is Serine/threonine-protein kinase Chk2 (Homo sapiens) (UniProt O96017). The data set is described as follows: Inhibition of CHK2 at 1 uM.
Data set [16] addresses T3, Serine/threonine-protein kinase 17A (Homo sapiens) (UniProt Q9UEE5).
T3 sequence (whole entry): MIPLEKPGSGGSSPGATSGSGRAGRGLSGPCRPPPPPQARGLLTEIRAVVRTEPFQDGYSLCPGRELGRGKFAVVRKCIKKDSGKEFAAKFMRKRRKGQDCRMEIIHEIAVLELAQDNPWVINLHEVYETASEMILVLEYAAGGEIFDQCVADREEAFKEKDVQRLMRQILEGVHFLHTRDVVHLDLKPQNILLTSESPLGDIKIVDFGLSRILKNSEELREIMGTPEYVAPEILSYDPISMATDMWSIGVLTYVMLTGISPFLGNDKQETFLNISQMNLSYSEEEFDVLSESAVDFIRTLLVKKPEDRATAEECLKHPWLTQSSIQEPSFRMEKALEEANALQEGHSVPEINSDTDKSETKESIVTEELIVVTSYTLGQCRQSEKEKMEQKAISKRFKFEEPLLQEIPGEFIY
The data set is described as follows: Inhibition of DRAK1 at 1 uM.

Data set [17] has as its target Mitogen-activated protein kinase 3 (Homo sapiens) (UniProt P27361). The data set is described as follows: Inhibition of ERK1 at 1 uM.
Data set [18] is described as follows: in vitro. As to conditions: human, Caco-2.
Description: Permeability across human Caco2 cells
Data set [19] deals with Mitogen-activated protein kinase 1 (Homo sapiens) (UniProt P28482). Put plainly: Inhibition of ERK2 at 1 uM.
Data set [20] relates to THP-1. Put plainly: Cytotoxicity against human THP1 cells by Alamar blue assay. Format: cell-based.

T1 sequence (P49137 whole entry): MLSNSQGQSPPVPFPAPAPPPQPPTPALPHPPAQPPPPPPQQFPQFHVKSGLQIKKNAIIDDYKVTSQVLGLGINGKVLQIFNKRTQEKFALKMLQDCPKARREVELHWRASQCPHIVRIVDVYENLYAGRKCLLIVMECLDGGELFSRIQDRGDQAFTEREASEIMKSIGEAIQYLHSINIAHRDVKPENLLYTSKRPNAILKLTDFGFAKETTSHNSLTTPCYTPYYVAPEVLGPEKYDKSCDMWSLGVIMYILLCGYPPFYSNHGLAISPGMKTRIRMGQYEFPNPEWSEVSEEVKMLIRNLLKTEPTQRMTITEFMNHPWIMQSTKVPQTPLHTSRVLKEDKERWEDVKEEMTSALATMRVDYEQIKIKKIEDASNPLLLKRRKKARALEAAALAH
Serine/threonine-protein kinase Chk2 (Homo sapiens), sequence (O96017 whole entry): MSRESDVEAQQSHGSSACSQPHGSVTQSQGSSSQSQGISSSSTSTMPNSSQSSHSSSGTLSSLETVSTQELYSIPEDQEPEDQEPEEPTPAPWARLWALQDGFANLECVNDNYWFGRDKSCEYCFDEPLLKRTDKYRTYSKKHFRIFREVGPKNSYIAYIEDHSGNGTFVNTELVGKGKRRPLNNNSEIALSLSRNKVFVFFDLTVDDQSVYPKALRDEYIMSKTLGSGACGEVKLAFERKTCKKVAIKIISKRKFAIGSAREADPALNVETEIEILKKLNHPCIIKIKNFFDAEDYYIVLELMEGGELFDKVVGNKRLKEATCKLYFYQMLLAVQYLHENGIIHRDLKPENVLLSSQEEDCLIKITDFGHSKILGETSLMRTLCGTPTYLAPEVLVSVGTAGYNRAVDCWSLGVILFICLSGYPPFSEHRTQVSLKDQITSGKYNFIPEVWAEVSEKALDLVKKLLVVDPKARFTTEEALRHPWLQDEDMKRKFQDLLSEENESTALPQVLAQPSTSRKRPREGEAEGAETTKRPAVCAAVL
Mitogen-activated protein kinase 3 (Homo sapiens), sequence (P27361 whole entry): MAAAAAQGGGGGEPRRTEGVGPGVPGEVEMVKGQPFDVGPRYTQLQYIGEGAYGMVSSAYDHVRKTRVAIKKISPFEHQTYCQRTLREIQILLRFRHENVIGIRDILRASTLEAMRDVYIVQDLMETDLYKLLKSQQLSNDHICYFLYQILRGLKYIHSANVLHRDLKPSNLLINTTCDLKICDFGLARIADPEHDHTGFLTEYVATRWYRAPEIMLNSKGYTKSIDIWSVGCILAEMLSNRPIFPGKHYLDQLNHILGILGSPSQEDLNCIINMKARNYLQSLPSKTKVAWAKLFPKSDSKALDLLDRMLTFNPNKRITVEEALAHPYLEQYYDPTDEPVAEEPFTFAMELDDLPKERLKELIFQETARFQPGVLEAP
Mitogen-activated protein kinase 1 (Homo sapiens), sequence (P28482 whole entry, looked up): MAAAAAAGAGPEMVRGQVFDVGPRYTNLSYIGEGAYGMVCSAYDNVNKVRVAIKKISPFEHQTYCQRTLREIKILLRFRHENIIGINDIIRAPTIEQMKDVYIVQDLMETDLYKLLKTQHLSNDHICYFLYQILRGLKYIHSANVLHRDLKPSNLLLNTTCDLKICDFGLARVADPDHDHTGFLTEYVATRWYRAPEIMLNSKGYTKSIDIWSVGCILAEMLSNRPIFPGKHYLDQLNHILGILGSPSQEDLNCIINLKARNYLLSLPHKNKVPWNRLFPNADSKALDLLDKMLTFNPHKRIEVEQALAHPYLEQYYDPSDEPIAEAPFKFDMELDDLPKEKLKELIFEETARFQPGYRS
Serine/threonine-protein kinase pim-1 (Homo sapiens), sequence (P11309 whole entry, looked up): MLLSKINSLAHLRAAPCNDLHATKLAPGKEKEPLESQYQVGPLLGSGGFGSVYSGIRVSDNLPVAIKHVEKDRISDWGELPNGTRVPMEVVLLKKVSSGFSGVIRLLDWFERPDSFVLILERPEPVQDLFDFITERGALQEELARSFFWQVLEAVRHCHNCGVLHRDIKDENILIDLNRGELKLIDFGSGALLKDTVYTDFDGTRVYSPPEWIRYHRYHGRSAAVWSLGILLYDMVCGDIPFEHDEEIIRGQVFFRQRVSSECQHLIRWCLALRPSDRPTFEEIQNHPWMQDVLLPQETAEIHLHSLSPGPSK
MAP kinase-activated protein kinase 3 (Homo sapiens), sequence (Q16644 whole entry, looked up): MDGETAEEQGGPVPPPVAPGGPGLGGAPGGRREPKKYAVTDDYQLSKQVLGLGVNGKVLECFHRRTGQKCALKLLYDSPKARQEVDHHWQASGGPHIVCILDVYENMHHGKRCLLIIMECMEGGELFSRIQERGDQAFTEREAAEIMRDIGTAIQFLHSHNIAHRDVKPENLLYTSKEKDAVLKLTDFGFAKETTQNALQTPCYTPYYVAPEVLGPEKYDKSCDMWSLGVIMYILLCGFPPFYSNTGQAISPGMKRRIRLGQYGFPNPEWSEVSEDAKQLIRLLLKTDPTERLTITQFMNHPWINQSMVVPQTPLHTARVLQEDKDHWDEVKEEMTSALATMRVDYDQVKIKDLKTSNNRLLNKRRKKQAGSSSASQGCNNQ

As for `O=C1NCC2(CCCNC2)c2[nH]c(-c3ccnc(-c4ccc5c(c4)OCO5)n3)cc21` (racemic), the EC50 in [1] turned out to be 28 nM; in [2], 1400 nM; in data set [3] it was 930 nM; in [4], 1100 nM. The compound further registered a pKa in [5] of 8.3. In addition, the half-life in [6] is more than 60 min; in data set [7] it was 48.5 min. This compound returned an AUC in data set [8] of 3.21 µM·h. Further, the bioavailability in [9] worked out at 48%. The inhibition entry in [10] was “inactive”. In addition, the inhibition was more than 95% in data set [11]; more than 95% in [12]; more than 80% in data set [13]; more than 80% in data set [14]; more than 80% in [15]; more than 80% in data set [16]. For the same compound, the inhibition in data set [17] and in data set [19] was more than 80% in each case. Also, the Papp in data set [18] amounted to 3.4 ×10⁻⁶ cm/s.
For `COc1cncc(-c2nccc(-c3cc4c([nH]3)C3(CCCNC3)CNC4=O)n2)c1` (racemic), the EC50 in data set [1] is 24 nM; in data set [2], 1400 nM; in [3] it was 900 nM; in data set [4], 1000 nM. The compound further came in with a pKa in data set [5] of 8.4. The half-life was 56.7 min in data set [6] and 42.1 min in data set [7]. Further, in data set [10], the inhibition result is “inactive”. Also, the inhibition in data set [11] was more than 95%; in [12] it was more than 95%; in [13], more than 80%; in data set [14] it was more than 80%; in [15], more than 80%; in data set [16], more than 80%. Also, the inhibition in [17] and in data set [19] was more than 80% throughout.
Consider `O=C1NCC2(CCNCC2)c2[nH]c(-c3ccnc(-c4ccc5c(c4)OCO5)n3)cc21`, for which the half-maximal effective concentration (EC50) came out at 4.3 nM in data set [1], 910 nM in [2] and 620 nM in data set [3]. For the same compound, the pKa in data set [5] was determined as 9.3. Moreover, the half-life in data set [6] and in data set [7] was more than 60 min each time. Further, the AUC in data set [8] was less than 0.006 µM·h. In data set [9], this compound came in with a bioavailability of 0.7%. In addition, in data set [10], the inhibition entry was “inactive”. In addition, the inhibition in data set [13], in [14], in data set [15], in data set [16], in [17] and in [19] was more than 80% in each case. In [18], this compound gave a Papp of 0.1 ×10⁻⁶ cm/s.
Turning to `CN1CCC2(CC1)CNC(=O)c1cc(-c3ccnc(-c4cc5ccccc5o4)n3)[nH]c12`, the EC50 in [1] was found to be 13 nM; in data set [2], 470 nM; in data set [3], 1600 nM. Further, in data set [5], the pKa is 8.1. In addition, the half-life in [6] and in [7] was more than 60 min each time. In [8], this compound had an AUC of 0.078 µM·h. In data set [20], this compound yielded an Activity of more than 10 µM. Besides, the inhibition result in data set [10] is “inactive”. Further, the inhibition in [13], in [14], in [15], in data set [16], in data set [17] and in data set [19] was more than 80% throughout. The compound also registered an apparent permeability (Papp) in data set [18] of 1 ×10⁻⁶ cm/s.
Take `CCN1CCC2(CC1)CNC(=O)c1cc(-c3ccnc(-c4cc5ccccc5o4)n3)[nH]c12`: the values for the EC50 in data set [1], in data set [2] and in data set [3] were 59 nM, 1600 nM and more than 10000 nM, respectively. In data set [5], this compound yielded a pKa of 8.6. Also, the half-life in data set [6] was more than 60 min; in [7], more than 59.6 min. For the same compound, the AUC in data set [8] worked out at 0.154 µM·h. In addition, in data set [20], the Activity was more than 10 µM. The inhibition result in data set [10] is “inactive”. For the same compound, the inhibition in data set [13], in data set [14], in data set [15], in data set [16], in [17] and in [19] was more than 80% in each case. In addition, the Papp in data set [18] came out at 0.8 ×10⁻⁶ cm/s.

The EC50 is the concentration at which the effect is half-maximal. One may read the pKa as the negative logarithm of the acid dissociation constant. Read a high pKa as a weaker acid or stronger base. Usually half-life stands for the time in which the quantity being followed falls by half. A low value points to fast loss. Broadly, the AUC is the area under the concentration-time curve, a measure of exposure. The bioavailability is the share of a dose that reaches the circulation, judged against a reference dose that is usually intravenous. One may read the inhibition as the change of the read-out against control, counted positive when it falls. Usually Papp stands for the rate of passage across a membrane or cell layer, normalised by area and donor concentration. Read a high Papp as ready permeation.
